Numbers after ± are expanded uncertainties.
What was measured:
[1] = 293.2 K; 101.33 kPa; Liquid; Vibrating tube method
[2] = refractive index (Na D-line) (dimensionless); conditions: 293.2 K; 101.33 kPa; Liquid; Standard Abbe refractometry

Compound	mass density [1] [kg/m3]	refractive index [2]
CCCC(=O)O [butanoic acid]	957.8 ± 0.37	1.3965 ± 0.0005
CCCCCCCCC(=O)OCC [ethyl nonanoate]	866.3 ± 0.72	1.4226 ± 0.0006
CCCCC(=O)OCC [ethyl pentanoate]	877.15 ± 0.36	1.4125 ± 0.0005

Further lines, results first:

mass density [1] [kg/m3]	refractive index [2]	Compound
1027.9 ± 0.93	1.5361 ± 0.0006	CC(=O)c1ccccc1 [acetophenone]
1055.25 ± 0.98	1.4135 ± 0.0006	CCOC(=O)CC(=O)OCC [diethyl 1,3-propanedioate]
879.18 ± 0.73	1.3918 ± 0.0006	CCCC(=O)OCC [ethyl butanoate]
825.95 ± 0.35	1.428 ± 0.0005	CCCCCCCCO [octan-1-ol]
782.3 ± 0.61	1.4275 ± 0.0006	CCCCN(CCCC)CCCC [tributylamine]
